Biological target: T1, human NaV 1.8 (Homo sapiens, UniProt Q9Y5Y9)
T1 construct: expressed in transfected cells; host or cells: HEK (recombinant cell line)
Test: Automated whole-cell patch clamp (Qube384) voltage-clamp recordings of sodium currents in HEK-NaV1.8 cell line
Assay type: cell-based
Conditions: read-out: Potency category (human NaV 1.8 IC50)
Outline: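 HEK cells expressing NaV1.8 with b3, whole-cell automated voltage clamp at room temperature or 19° C.; CsF-based internal, pH 7.4 external. State-dependent (−120 mV, V1/2 4 s, −10 mV test pulses) and 10/20 Hz 40-pulse protocols; ~12 min compound, vehicle-corrected, IC50 by 4-parameter logistic fit.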

T1 sequence (Q9Y5Y9 whole entry): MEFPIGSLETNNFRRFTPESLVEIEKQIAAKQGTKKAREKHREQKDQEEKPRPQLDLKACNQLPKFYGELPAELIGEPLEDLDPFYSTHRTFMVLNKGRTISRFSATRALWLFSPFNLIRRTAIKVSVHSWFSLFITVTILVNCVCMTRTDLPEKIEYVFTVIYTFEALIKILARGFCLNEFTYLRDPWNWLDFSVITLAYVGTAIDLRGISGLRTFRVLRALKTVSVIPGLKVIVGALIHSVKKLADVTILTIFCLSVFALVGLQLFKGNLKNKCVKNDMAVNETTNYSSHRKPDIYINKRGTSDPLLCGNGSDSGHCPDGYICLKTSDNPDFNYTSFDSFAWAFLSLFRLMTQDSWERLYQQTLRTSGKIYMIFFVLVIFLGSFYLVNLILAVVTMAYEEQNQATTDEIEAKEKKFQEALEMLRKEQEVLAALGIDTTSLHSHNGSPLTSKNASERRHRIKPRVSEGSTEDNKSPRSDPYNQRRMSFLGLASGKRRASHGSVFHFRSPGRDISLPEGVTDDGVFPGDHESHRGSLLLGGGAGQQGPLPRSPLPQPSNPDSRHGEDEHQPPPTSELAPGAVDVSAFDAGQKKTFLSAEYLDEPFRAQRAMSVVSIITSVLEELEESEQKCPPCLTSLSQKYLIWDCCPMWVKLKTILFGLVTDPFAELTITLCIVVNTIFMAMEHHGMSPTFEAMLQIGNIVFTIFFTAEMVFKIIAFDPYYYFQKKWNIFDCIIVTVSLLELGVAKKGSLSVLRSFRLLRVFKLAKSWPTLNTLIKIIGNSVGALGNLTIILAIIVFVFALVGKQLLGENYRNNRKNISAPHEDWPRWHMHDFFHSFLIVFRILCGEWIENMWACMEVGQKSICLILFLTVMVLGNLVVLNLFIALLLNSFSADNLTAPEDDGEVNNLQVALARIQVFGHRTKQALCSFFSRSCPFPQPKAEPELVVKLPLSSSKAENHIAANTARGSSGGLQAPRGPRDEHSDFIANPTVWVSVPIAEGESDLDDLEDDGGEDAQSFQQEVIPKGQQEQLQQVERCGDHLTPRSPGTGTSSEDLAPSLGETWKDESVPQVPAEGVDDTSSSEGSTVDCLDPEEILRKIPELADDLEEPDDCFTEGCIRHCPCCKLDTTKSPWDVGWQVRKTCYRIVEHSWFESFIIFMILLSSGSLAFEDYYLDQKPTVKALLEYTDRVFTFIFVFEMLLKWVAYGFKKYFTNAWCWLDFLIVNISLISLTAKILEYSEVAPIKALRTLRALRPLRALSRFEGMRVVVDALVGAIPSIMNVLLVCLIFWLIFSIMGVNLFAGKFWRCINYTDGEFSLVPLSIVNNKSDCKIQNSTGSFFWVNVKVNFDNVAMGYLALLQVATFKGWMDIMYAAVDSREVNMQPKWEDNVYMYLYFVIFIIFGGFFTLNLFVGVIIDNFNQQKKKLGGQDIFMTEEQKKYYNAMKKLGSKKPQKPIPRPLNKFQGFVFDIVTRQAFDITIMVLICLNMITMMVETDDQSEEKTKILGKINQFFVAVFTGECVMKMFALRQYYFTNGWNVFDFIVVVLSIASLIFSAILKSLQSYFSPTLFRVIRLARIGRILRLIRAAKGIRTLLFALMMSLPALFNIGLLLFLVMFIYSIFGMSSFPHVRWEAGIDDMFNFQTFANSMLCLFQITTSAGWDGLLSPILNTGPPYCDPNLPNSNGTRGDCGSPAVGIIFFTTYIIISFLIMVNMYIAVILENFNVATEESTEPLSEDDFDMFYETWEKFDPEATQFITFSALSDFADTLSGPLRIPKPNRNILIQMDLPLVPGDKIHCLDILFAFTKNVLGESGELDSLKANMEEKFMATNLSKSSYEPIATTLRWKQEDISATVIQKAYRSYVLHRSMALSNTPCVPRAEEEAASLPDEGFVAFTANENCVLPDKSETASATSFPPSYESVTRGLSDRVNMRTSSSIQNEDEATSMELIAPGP

CC1(Cn2nc(C34CC(F)(C3)C4)c(C(F)F)c2C(=O)Nc2ccc(F)c(S(C)(=N)=O)c2)CC(F)(F)C1 (single isomer, unassigned) [Example 138a, 1-((3,3-Difluoro-1-methylcyclobutyl)methyl)-4-(difluoromethyl)-N-(4-fluoro-3-(S-methylsulfonimidoyl)phenyl)-3-(3-fluorobicyclo[1.1.1]pentan-1-yl)-1H-pyrazole-5-carboxamide]
IC50: ≤ 100 nM

C[S@](=N)(=O)c1cc(NC(=O)c2c(C(F)(F)F)c(C3CC3)nn2C[C@]2(C)C[C@@H](C(F)(F)F)C2)ccn1 (single isomer, unassigned) [Example 86d, 3-cyclopropyl-1-(((cis)-1-methyl-3-(trifluoromethyl)cyclobutyl)methyl)-N-(2-(S-methylsulfonimidoyl)pyridin-4-yl)-4-(trifluoromethyl)-1H-pyrazole-5-carboxamide]
IC50: ≤ 100 nM

CC1(Cn2nc(C34CC(F)(C3)C4)c(C(F)(F)F)c2C(=O)Nc2ccnc(S(C)(=N)=O)c2)CC(F)(F)C1 (single isomer, unassigned) [Example 110b, 1-((3,3-Difluoro-1-methylcyclobutyl)methyl)-3-(3-fluorobicyclo[1.1.1]pentan-1-yl)-N-(2-(S-methylsulfonimidoyl)pyridin-4-yl)-4-(trifluoromethyl)-1H-pyrazole-5-carboxamide]
IC50: ≤ 100 nM

CS(=N)(=O)c1cc(NC(=O)c2c(C(F)(F)F)c(C3CC3)nn2CC23CC2CC(F)(F)C3)ccn1 (single isomer, unassigned) [Example 95c, 3-Cyclopropyl-1-((3,3-difluorobicyclo[3.1.0]hexan-1-yl)methyl)-N-(2-(S-methylsulfonimidoyl)pyridin-4-yl)-4-(trifluoromethyl)-1H-pyrazole-5-carboxamide]
IC50: ≤ 100 nM

Cc1c(C(C)(F)F)nn(CC2(C)CCC(F)(F)CC2)c1C(=O)Nc1ccnc(S(C)(=N)=O)c1 (single isomer, unassigned) [Example 11a, 1-((4,4-difluoro-1-methylcyclohexyl)methyl)-3-(1,1-difluoroethyl)-4-methyl-N-(2-(S-methylsulfonimidoyl)pyridin-4-yl)-1H-pyrazole-5-carboxamide]
IC50: ≤ 100 nM

C[S@](=N)(=O)c1cc(NC(=O)c2c(C(F)(F)F)c(C3CC3)nn2C[C@]2(C)C[C@H](C(F)(F)F)C2)ccn1 (single isomer, unassigned) [Example 86b, 3-cyclopropyl-1-(((trans)-1-methyl-3-(trifluoromethyl)cyclobutyl)methyl)-N-(2-(S-methylsulfonimidoyl)pyridin-4-yl)-4-(trifluoromethyl)-1H-pyrazole-5-carboxamide]
IC50: ≤ 100 nM

C[C@@]1(Cn2nc(C3CC3)c(C(F)(F)F)c2C(=O)Nc2ccnc([S@](C)(=N)=O)c2)CC(F)(F)C12CC2 (single isomer, unassigned) [Example 92c, 3-cyclopropyl-1-((6,6-difluoro-4-methylspiro[2.3]hexan-4-yl)methyl)-N-(2-(S-methylsulfonimidoyl)pyridin-4-yl)-4-(trifluoromethyl)-1H-pyrazole-5-carboxamide]
IC50: ≤ 100 nM

CS(=N)(=O)c1cc(NC(=O)c2c(C(F)(F)F)c(C3CC3)nn2CC23CC(C(F)(F)F)(C2)C3)ccn1 (single isomer, unassigned) [Example 23a, 3-cyclopropyl-N-(2-(S-methylsulfonimidoyl)pyridin-4-yl)-4-(trifluoromethyl)-1-((3-(trifluoromethyl)bicyclo[1.1.1]pentan-1-yl)methyl)-1H-pyrazole-5-carboxamide]
IC50: ≤ 100 nM

CS(=N)(=O)c1cc(NC(=O)c2c(C(F)(F)F)c(C3CC3)nn2CC2CCC23CNC3)ccn1 (single isomer, unassigned) [Example 153b, 1-((2-Azaspiro[3.3]heptan-5-yl)methyl)-3-cyclopropyl-N-(2-(S-methylsulfonimidoyl)pyridin-4-yl)-4-(trifluoromethyl)-1H-pyrazole-5-carboxamide]
IC50: 1000 to 10000 nM

CC1(Cn2nc(C3CC4(CC4)C3)c(C(F)(F)F)c2C(=O)Nc2ccnc(S(C)(=N)=O)c2)CC(F)(F)C1 (single isomer, unassigned) [Example 61a, 1-((3,3-Difluoro-1-methylcyclobutyl)methyl)-N-(2-(S-methylsulfonimidoyl)pyridin-4-yl)-3-(spiro[2.3]hexan-5-yl)-4-(trifluoromethyl)-1H-pyrazole-5-carboxamide]
IC50: ≤ 100 nM

CC1(Cn2nc(C3CC3)c(C(F)(F)F)c2C(=O)Nc2ccnc(S(C)(=O)=NC#N)c2)CC(F)(F)C1 (single isomer, unassigned) [Example 142a, N-(2-(N-Cyano-S-methylsulfonimidoyl)pyridin-4-yl)-3-cyclopropyl-1-((3,3-difluoro-1-methylcyclobutyl)methyl)-4-(trifluoromethyl)-1H-pyrazole-5-carboxamide]
IC50: ≤ 100 nM

CC1(Cn2nc(C3CC3F)c(C(F)(F)F)c2C(=O)Nc2ccnc(S(C)(=N)=O)c2)CC(F)(F)C1 (racemic) [Example 62a, 1-((3,3-Difluoro-1-methylcyclobutyl)methyl)-3-(2-fluorocyclopropyl)-N-(2-(S-methylsulfonimidoyl)pyridin-4-yl)-4-(trifluoromethyl)-1H-pyrazole-5-carboxamide]
IC50: ≤ 100 nM

CC1(Cn2nc(C34CC(F)(C3)C4)c(C(F)(F)F)c2C(=O)Nc2cccc(S(C)(=N)=O)c2)CC(F)(F)C1 (single isomer, unassigned) [Example 111b, 1-((3,3-difluoro-1-methylcyclobutyl)methyl)-3-(3-fluorobicyclo[1.1.1]pentan-1-yl)-N-(3-(S-methylsulfonimidoyl)phenyl)-4-(trifluoromethyl)-1H-pyrazole-5-carboxamide]
IC50: ≤ 100 nM

Cc1c(C(C)(F)F)nn(C[C@H]2C[C@@H](C(F)(F)F)C2)c1C(=O)Nc1ccnc(S(C)(=N)=O)c1 (single isomer, unassigned) [Example 31b, 3-(1,1-difluoroethyl)-4-methyl-N-(2-(S-methylsulfonimidoyl)pyridin-4-yl)-1-(((cis)-3-(trifluoromethyl)cyclobutyl)methyl)-1H-pyrazole-5-carboxamide]
IC50: ≤ 100 nM

CS(=N)(=O)c1cc(NC(=O)c2c(C(F)(F)F)c(C3CC3)nn2CC23CC2CC(F)(F)C3)ccn1 (single isomer, unassigned) [Example 95b, 3-Cyclopropyl-1-((3,3-difluorobicyclo[3.1.0]hexan-1-yl)methyl)-N-(2-(S-methylsulfonimidoyl)pyridin-4-yl)-4-(trifluoromethyl)-1H-pyrazole-5-carboxamide]
IC50: ≤ 100 nM

CC1(Cn2nc(C3CC3)c(C(F)(F)F)c2C(=O)Nc2ccnc(S(C)(=O)=NC#N)c2)CC(F)(F)C1 (single isomer, unassigned) [Example 142b, N-(2-(N-Cyano-S-methylsulfonimidoyl)pyridin-4-yl)-3-cyclopropyl-1-((3,3-difluoro-1-methylcyclobutyl)methyl)-4-(trifluoromethyl)-1H-pyrazole-5-carboxamide]
IC50: ≤ 100 nM

COC12CC(c3nn(CC4(C)CC(F)(F)C4)c(C(=O)Nc4ccnc(S(C)(=N)=O)c4)c3C(F)(F)F)(C1)C2 (centres unmarked) [Example 122, 1-((3,3-Difluoro-1-methylcyclobutyl)methyl)-3-(3-methoxybicyclo[1.1.1]pentan-1-yl)-N-(2-(S-methylsulfonimidoyl)pyridin-4-yl)-4-(trifluoromethyl)-1H-pyrazole-5-carboxamide]
IC50: ≤ 100 nM

C[S@](=N)(=O)c1cc(NC(=O)c2c(C(F)(F)F)c(C3CC3)nn2C[C@H]2C(F)(F)C23CC3)ccn1 (single isomer, unassigned) [Example 79b, 3-cyclopropyl-1-((2,2-difluorospiro[2.2]pentan-1-yl)methyl)-N-(2-(S-methylsulfonimidoyl)pyridin-4-yl)-4-(trifluoromethyl)-1H-pyrazole-5-carboxamide]
IC50: ≤ 100 nM

CC1(Cn2nc(C34CC(F)(C3)C4)c(C(F)F)c2C(=O)Nc2ccc(F)c(S(C)(=N)=O)c2)CC(F)(F)C1 (single isomer, unassigned) [Example 138b, 1-((3,3-Difluoro-1-methylcyclobutyl)methyl)-4-(difluoromethyl)-N-(4-fluoro-3-(S-methylsulfonimidoyl)phenyl)-3-(3-fluorobicyclo[1.1.1]pentan-1-yl)-1H-pyrazole-5-carboxamide]
IC50: ≤ 100 nM

CC1(Cn2nc(C3(C(F)(F)F)CC3)c(C(F)(F)F)c2C(=O)Nc2ccnc(S(C)(=N)=O)c2)CC(F)(F)C1 (single isomer, unassigned) [Example 144a, 1-((3,3-Difluoro-1-methylcyclobutyl)methyl)-N-(2-(S-methylsulfonimidoyl)pyridin-4-yl)-4-(trifluoromethyl)-3-(1-(trifluoromethyl)cyclopropyl)-1H-pyrazole-5-carboxamide]
IC50: ≤ 100 nM

C[S@@](=N)(=O)c1cc(NC(=O)c2c(C(F)(F)F)c(C3CC3)nn2C[C@]2(C)C[C@H](C(F)(F)F)C2)ccn1 (single isomer, unassigned) [Example 86a, 3-cyclopropyl-1-(((trans)-1-methyl-3-(trifluoromethyl)cyclobutyl)methyl)-N-(2-(S-methylsulfonimidoyl)pyridin-4-yl)-4-(trifluoromethyl)-1H-pyrazole-5-carboxamide]
IC50: ≤ 100 nM

CC1(Cn2nc(C3(C#N)CC3)c(C(F)(F)F)c2C(=O)Nc2ccnc(S(C)(=N)=O)c2)CC(F)(F)C1 (single isomer, unassigned) [Example 68b, 3-(1-cyanocyclopropyl)-1-((3,3-difluoro-1-methylcyclobutyl)methyl)-N-(2-(S-methylsulfonimidoyl)pyridin-4-yl)-4-(trifluoromethyl)-1H-pyrazole-5-carboxamide]
IC50: ≤ 100 nM

C[S@@](=N)(=O)c1cccc(NC(=O)c2c(C(F)(F)F)c(C3(F)CC3)nn2CC2C[C@@H]2C(F)(F)F)c1 (single isomer, unassigned) [Example 134a, 3-(1-Fluorocyclopropyl)-N-(3-(S-methylsulfonimidoyl)phenyl)-4-(trifluoromethyl)-1-(((trans)-2-(trifluoromethyl)cyclopropyl)methyl)-1H-pyrazole-5-carboxamide]
IC50: ≤ 100 nM

Source: US12685726B2, “Sulfoximines as inhibitors of NaV1.8” (Gruenenthal GmbH, priority 2022, dated 2026)
